Laboratory results: patent US4468469A, “Substituted phenylacetic acids and salts as TBP blocking agents in iodothyronine immunoassays” (Miles Laboratories, Inc., priority 1982, dated 1984)
Where “and” joins values, the source holds several entries; their conditions need not be identical. Equal entries are not always repeated.

Key:
[1] = Fluorescence and fluorescence quenching studies (SLFIA conditions); conditions: 10 mM fenclofenac; excitation 400 nm, emission 450 nm, 50 mM Bicine buffer pH 8.3
Method: Fluorescence measurements were conducted in 50 mM Bicine buffer (N,N-bis-(2-hydroxyethyl)glycine, Calbiochem-Behring, LaJolla, Calif., USA), pH 8.3, using an Aminco Bowman Fluorometer (American Instruments, Silver Springs, Md., USA), excitation set at 400 nm and emission at 450 nm, which are the fluorescence conditions for the β-galactosyl-umbelliferone enzyme substrate-labeled fluorescent immunoassay (SLFIA) described in U.S. Pat. No. 4,279,992.
Quenching studies were performed by measuring the fluorescence of a 1.3 μM solution of 2-[7-hydroxy-3-carboxamidocoumarin]ethanol (U.S. Pat. No. 4,273,715) in the presence of various levels of fenclofenac. The ratios of observed fluorescence (F) to fluorescence in the absence of fenclofenac (Fo) versus fenclofenac concentration were calculated and are presented in Table 6.

[2] = Optical absorption spectra; format: physicochemical
[3] = test system: anti(thyroxine) antiserum / apoglucose oxidase; assay: Apoenzyme reactivation immunoassay system for serum thyroxine; format: biochemical; conditions: 2 mM sodium salt of dissociating agent in buffer
Method: Standard curves for serum thyroxine were generated using a semiautomated assay protocol on the Gilford Clinical Chemistry Analyzer System 203-S (Gilford Instrument Laboratories, Oberline, OH, USA). […] The FAD-thyroxine conjugate (40 nM in 0.1M sodium phosphate, pH 7.0, 0.01% Triton X-100) as a 0.05 ml aliquot was added to the reaction cup and allowed to equilibrate for 30 seconds. The reaction was initiated by addition of 0.10 ml 1.0 μM apoglucose oxidase, 2 mM 4-aminoantipyrine, 12% glycerol, 80 mM sodium phosphate, pH 7.0. The absorbance at 520 nm was recorded after an 8 minute incubation.

antibody to thyroxine = assay: Effect on the binding of 125I-thyroxine with antibody (polyethyleneglycol precipitation); conditions: for Percent 125I-Thyroxine in Precipitate: percent of radioactivity without fenclofenac, 180 min
Method: A series of antibody binding reactions were set up in 0.1M sodium phosphate buffer, pH 6.5, to give final volumes of 0.6 ml containing various concentrations of fenclofenac. Each reaction contained ^125 I-thyroxine, 20 μl of normal rabbit immunoglobulin, and 2 μl of antibody to thyroxine. The mixtures were incubated at room temperature for about 3 hours and then 400 μl of 50% (w/v) polyethyleneglycol was added. The precipitated proteins were collected by centrifugation and the radioactivity in each precipitate was measured. The results are shown in Table 2 as percent of the radioactivity in the precipitate without fenclofenac.

apoglucose oxidase = apoglucose oxidase (Aspergillus niger, UniProt P13006); assay: Activation of apoglucose oxidase by FAD-theophylline conjugate (fenclofenac); format: biochemical; conditions: 5 min, 37° C., read-out: Percent Apoglucose Oxidase Activity
Method: A series of apoenzyme reactivation measurements were set up with different concentrations of fenclofenac. The assays were performed at 37° C. and the final reagent concentrations in 0.1M phosphate buffer, pH 7.0, were 1.0 nanomolar (nM) FAD-labeled conjugate (an FAD-theophylline conjugate as described in U.S. Pat. No. 4,238,565), 50 nM apoglucose oxidase (U.S. Pat. No. 4,268,631), 2.5 μl/ml anti(glucose oxidase) antiserum, 2 mM sodium dichlorohydroxybenzene sulfonate (DHSA), 0.2 mM 4-aminoantipyrine, 0.1M glucose, 20 μg/ml peroxidase, and 0.1% (w/v) bovine serum albumin. The apoenzyme and anti(glucose oxidase) were preincubated and the reaction then started by simultaneously mixing in the other reagents. The reaction mixtures were incubated for 5 minutes and then absorbance at 520 nm read. The results shown in Table 4 relate fenclofenac concentration to the generation of active glucose oxidase.

[4] = test system: serum proteins (thyroxine binding protein, TBP); assay: Effect of pH on the dissociation of iodothyronine from serum proteins; parameters: species or system human; conditions: for Percent Dissociated: dissociating agent 2.0 mM
Method: Radioactive iodine labeled thyroxine (^125 I-thyroxine obtained from Amersham-Searle, Arlington Heights, IL, USA) was equilibrated with 5 ml of normal human serum for 48 hours at 4° C. […] After 5 minutes of incubation at room temperature, a 165 μl aliquot was applied to a Sephadex® column from a Seralute® thyroxine assay kit (Miles Laboratories, Inc., Ames Division, Elkhart, IN, USA), which had been equilibrated with 0.1M sodium phosphate, pH 7.0. The total radioactivity applied to the columns was measured and the undissociated material was washed through the column with 3 ml of buffer. The columns were counted to determine the percentage of thyroxine dissociated from the serum proteins.
Using the column procedure described in the second study in Example 1, the pH of the 0.1M sodium phosphate was varied and the concentration of the dissociating agent held constant at 2.0 mM. The columns were equilibrated with buffer containing the dissociating agent at the given pH and 165 μl of the serum diluted in buffer at the given pH (as described above) was applied to the column. The total counts were measured and then the columns were washed with buffer at the given pH. The counts remaining on the column represent the percentage of iodothyronine dissociated.

Chain of apoglucose oxidase (P13006 17-605): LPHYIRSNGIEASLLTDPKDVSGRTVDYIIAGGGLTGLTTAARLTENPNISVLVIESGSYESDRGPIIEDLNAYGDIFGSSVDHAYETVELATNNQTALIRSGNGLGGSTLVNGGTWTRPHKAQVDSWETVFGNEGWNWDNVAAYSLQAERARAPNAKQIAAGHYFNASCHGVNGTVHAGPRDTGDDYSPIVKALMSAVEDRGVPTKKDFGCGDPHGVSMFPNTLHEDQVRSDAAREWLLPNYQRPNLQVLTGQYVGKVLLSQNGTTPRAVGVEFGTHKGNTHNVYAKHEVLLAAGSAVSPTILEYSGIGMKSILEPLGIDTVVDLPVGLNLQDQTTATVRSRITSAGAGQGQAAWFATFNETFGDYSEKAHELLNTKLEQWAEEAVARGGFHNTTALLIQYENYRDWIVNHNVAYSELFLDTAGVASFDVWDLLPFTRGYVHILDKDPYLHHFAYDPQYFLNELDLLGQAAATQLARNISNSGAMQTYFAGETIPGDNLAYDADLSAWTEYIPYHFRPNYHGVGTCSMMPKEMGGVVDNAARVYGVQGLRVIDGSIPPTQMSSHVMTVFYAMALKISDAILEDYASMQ

## O=C(O)Cc1ccccc1Oc1ccc(Cl)cc1Cl [Fenclofenac, 2-(2,4-dichlorophenoxy)phenylacetic acid]
[1]
  own fluorescence: did not exhibit any fluorescence
[2]; 0.5 mM solution in 0.1M sodium phosphate buffer, pH 6.5
  optical absorption above 300 nm: no significant absorption above 300 nanometers
[2]; 50 mM solution in dilute sodium hydroxide
  visible color of solution: no visible color
[2]; in 0.1M sodium hydroxide
  λmax: 275 nanometers and 269 nanometers
  λmin: 257 nanometers
[2]; in 0.1M sodium hydroxide, at λmax
  ε max (NaOH), extinction coefficient: 2060 M⁻¹ cm⁻¹ and 2050 M⁻¹ cm⁻¹
[2]; in 0.1M sodium hydroxide, at λmin
  ε min (NaOH), extinction coefficient: 1520 M⁻¹ cm⁻¹
[3]; Thyroxine Standard 0 μg/L
  Absorbance (520 nm): 0.797
[3]; Thyroxine Standard 25 μg/L
  Absorbance (520 nm): 0.823
[3]; Thyroxine Standard 75 μg/L
  Absorbance (520 nm): 0.893
[3]; Thyroxine Standard 125 μg/L
  Absorbance (520 nm): 0.965
[3]; Thyroxine Standard 200 μg/L
  Absorbance (520 nm): 1.078
Antibody to thyroxine; 0.2 mM fenclofenac
  Percent 125I-Thyroxine in Precipitate: 97%
Antibody to thyroxine; 0.5 mM fenclofenac
  Percent 125I-Thyroxine in Precipitate: 80%
Antibody to thyroxine; 1.0 mM fenclofenac
  Percent 125I-Thyroxine in Precipitate: 69%
Antibody to thyroxine; 2.5 mM fenclofenac
  Percent 125I-Thyroxine in Precipitate: 61%
Antibody to thyroxine; 5.0 mM fenclofenac
  Percent 125I-Thyroxine in Precipitate: 43%
Antibody to thyroxine; concentrations below about 2.5 mM
  inhibition of the antibody binding reaction: about 40%
Antibody to thyroxine; concentrations below about 5 mM
  inhibition of the antibody binding reaction: about 50%
Apoglucose oxidase; pH 7, 0.5 mM fenclofenac
  activity at 500 µM: 81%
Apoglucose oxidase; pH 7, 1.0 mM fenclofenac
  activity at 1000 µM: 66%
Apoglucose oxidase; pH 7, 1.5 mM fenclofenac
  activity at 1500 µM: 61%
Apoglucose oxidase; pH 7, 2.0 mM fenclofenac
  activity at 2000 µM: 64%
Apoglucose oxidase; pH 7, 2.5 mM fenclofenac
  activity at 2500 µM: 47%
[4]; over the range pH 6.0-8.0, 2.0 mM
  pH dependence of the dissociation of iodothyronine from serum proteins: independent of pH
[4]; pH 6.0
  Percent Dissociated: 84%
[4]; pH 6.5
  Percent Dissociated: 84%
[4]; pH 7.0
  Percent Dissociated: 86%
[4]; pH 7.5
  Percent Dissociated: 85%
[4]; pH 8.0
  Percent Dissociated: 83%
